Results from PMC2185977 (The Journal of Experimental Medicine, 1980).

Legend:
IgMWEA [1] = assay: Quantitative precipitin reaction of purified IgMWEA with polysaccharides; type: binding, human; settings: ~8 μg N purified IgMWEA, total volume 350 μl, Fig. 1A
IgMWEA [2] = assay: Quantitative precipitin inhibition, IgMWEA + Bacto agar 20C extract; type: binding, human; settings: for inhibition of precipitation of IgMWEA by agar: even at 100 μmol inhibitor; for times more active than sodium pyruvate on a molar basis: inhibiting precipitation of IgMWEA by agar
IgMMAY = assay: Quantitative precipitin inhibition, IgMMAY + Klebsiella K21; type: binding, human; settings: for inhibition of precipitation of IgMMAY by Klebsiella K21: 25 μl 1:5 dilution IgMMAY + 1.6 μg Klebsiella K21, Fig. 3B; for times more active than pyruvate in inhibiting the Klebsiella K21 precipitin reaction: IgMMAY
anti-Klebsiella K11 = settings: cited from earlier work
IgMWEA [3] = assay: Precipitin inhibition, IgMWEA-Helix pomatia galactan; type: binding, human; settings: data not shown

Molecule | precipitin reaction with IgMWEA (IgMWEA [1]) | inhibition of precipitation of IgMMAY by Klebsiella K21 (IgMMAY) | other results
Larch arabinogalactan | inactive |  | 
xanthan gum | failed to precipitate |  | 
O=C[C@H](O)[C@@H](O)[C@@H](O)[C@H](O)CO [DGal, D-galactose] |  | Neither DGal, its methyl a- and/~-glycosides, nor any of the other neutral sugars tested gave any inhibition | inhibition of precipitation of IgMWEA by agar (IgMWEA [2]): no inhibition
keratosulfate | failed to precipitate |  | 
CO[C@H]1O[C@@H]2CO[C@@](C)(C(=O)O)O[C@@H]2[C@H](O)[C@H]1O (single isomer, unassigned) [methyl 4,6pyDGalα S isomer] |  | inactive | inhibition of Klebsiella K11-anti-Klebsiella K11 (anti-Klebsiella K11): does not inhibit
CCC(=O)[O-].[Na+] [sodium propionate] |  |  | inhibition of precipitin reaction of IgMWEA-Helix pomatia galactan (IgMWEA [3]): inactive
O=P(O)(O)O[C@H]1O[C@H](CO)[C@@H](O)[C@H](O)[C@H]1O [D-glucose-1-phosphate, D-glucose-l-phosphate] |  | no inhibition | 
CO[C@H]1O[C@@H]2CO[C@@](C)(C(=O)O)O[C@@H]2[C@H](O)[C@H]1O (single isomer, unassigned) [methyl 4,6pyDGalα R isomer] |  |  | times more active than sodium pyruvate on a molar basis (IgMWEA [2]): > 20 times; times more active than pyruvate in inhibiting the Klebsiella K21 precipitin reaction (IgMMAY): 150 times
O=C[C@H](O)[C@@H](O)[C@@H](O)[C@H](O)COP(=O)(O)O [D-galactose-6-phosphate] |  | no inhibition | 
CC(O)C(=O)[O-].[Na+] (stereo not shown) [sodium lactate] |  |  | inhibition of precipitin reaction of IgMWEA-Helix pomatia galactan (IgMWEA [3]): inactive
CO[C@@H]1O[C@@H]2COC(C)(C(=O)O)O[C@@H]2[C@H](O)[C@H]1O (single isomer, unassigned) [methyl 4,6pyDGalβ R isomer, methyl 4,6-O-(1-carboxyethylidene) ~-o-galactopyranoside] |  |  | times more active than sodium pyruvate on a molar basis (IgMWEA [2]): > 20 times; times more active than pyruvate in inhibiting the Klebsiella K21 precipitin reaction (IgMMAY): 150 times
agarose | inactive |  | 
CO[C@H]1O[C@H](CO)[C@H](O)[C@H](O)[C@H]1O [methyl α-DGal, methyl a-DGal] |  | no inhibition | inhibition of precipitation of IgMWEA by agar (IgMWEA [2]): no inhibition
heparin | failed to precipitate |  | 
CC(=O)C(=O)O [sodium pyruvate, Sodium pyruvate] |  | better than lactate and propionate | inhibition of precipitin reaction of IgMWEA-Helix pomatia galactan (IgMWEA [3]): inhibited
COC1OC(CO)C(O)C(O)C1O (stereo not drawn) [methyl β-DGal, methyl /~-DGal] |  | no inhibition | inhibition of precipitation of IgMWEA by agar (IgMWEA [2]): no inhibition
O=P(O)(O)O[C@H]1O[C@H](CO)[C@H](O)[C@H](O)[C@H]1O [D-galactose-1-phosphate] |  | no inhibition | 
dextran sulfate | did react |  | 
